Reference: patent US20240116985A1, “STAPLED PEPTIDES AND METHODS THEREOF” (priority 2020, published 2024)

Assays:
[1] = biological target: T1, beta-catenin/TCF4 engagement (Homo sapiens, UniProt P35222); assay: Nano-BRET target engagement assay (B-cat-Halo & TCF4-Luc in HEK293 cells); assay type: cell-based; conditions: absolute IC50; read-out: NanoBRET Abs IC50
T1 construct: expressed in transfected cells; host or cells: HEK293
T1 sequence (P35222 1-781): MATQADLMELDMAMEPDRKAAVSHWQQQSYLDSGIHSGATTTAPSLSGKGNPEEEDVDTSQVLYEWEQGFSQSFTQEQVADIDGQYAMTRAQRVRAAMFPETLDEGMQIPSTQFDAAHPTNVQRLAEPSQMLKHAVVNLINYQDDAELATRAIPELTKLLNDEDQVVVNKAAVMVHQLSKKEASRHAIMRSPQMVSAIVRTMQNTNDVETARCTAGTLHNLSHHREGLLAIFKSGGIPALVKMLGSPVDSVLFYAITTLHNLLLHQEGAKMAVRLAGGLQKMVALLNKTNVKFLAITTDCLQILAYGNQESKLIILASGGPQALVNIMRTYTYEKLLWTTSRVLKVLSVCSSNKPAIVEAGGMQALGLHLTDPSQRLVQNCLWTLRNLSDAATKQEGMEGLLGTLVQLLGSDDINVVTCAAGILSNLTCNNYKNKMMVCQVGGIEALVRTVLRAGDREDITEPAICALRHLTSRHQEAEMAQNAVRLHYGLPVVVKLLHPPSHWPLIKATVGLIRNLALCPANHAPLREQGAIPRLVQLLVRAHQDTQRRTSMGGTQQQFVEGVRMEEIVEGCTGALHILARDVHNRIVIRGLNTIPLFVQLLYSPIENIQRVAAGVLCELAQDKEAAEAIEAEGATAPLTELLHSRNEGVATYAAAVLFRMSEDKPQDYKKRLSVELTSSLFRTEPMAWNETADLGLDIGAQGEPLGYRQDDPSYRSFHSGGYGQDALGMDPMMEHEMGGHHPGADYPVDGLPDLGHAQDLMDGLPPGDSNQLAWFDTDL

[2] = biological target: T2, full-length beta-Catenin (Uniprot ID P35222) (Homo sapiens, UniProt P35222); assay: Fluorescence polarization IC50 (beta-catenin / 5FAM-TCF4 10-53 competition); assay type: binding; conditions: fluorescence polarization; read-out: beta-Catenin FP IC50
T2 construct: 10 nM full-length beta-Catenin (Uniprot ID P35222)
T2 sequence (P35222 1-781): T1 sequence (P35222 1-781)

IC50 [1] [nM]	IC50 [2] [nM]	Compound
14400	19	CC(=O)N1CCC[C@]12CC=CCCCC1(CCCC=CCCCOC(=O)N3CC[C@@](C(=O)N[C@@H](Cc4ccsc4)C(=O)N[C@@H](Cc4csc5ccccc45)C(=O)N[C@@H](CCC(N)=O)C(N)=O)(C3)NC(=O)[C@H]([C@@H](C)O)NC(=O)[C@H](Cc3ccccc3)NC(=O)[C@H](C)NC(=O)[C@H](C)NC(=O)[C@H](Cc3cccc(C(=O)O)c3)NC(=O)[C@H](CC(N)=O)NC1=O)NC(=O)[C@H](CC(C)(C)C)NC(=O)[C@H](CC(=O)O)NC2=O (stereo partly drawn) [I-2336, Ac-PL3-Asp-Npg-B5-Asn-3COOHF-Ala-Ala-Phe-Thr-PyrS2-3Thi-BztA-Gln-NH2]
> 20000	63	CC(=O)N1CCC[C@]12CC=CCCCC1(CCCC=CCCCOC(=O)N3CC[C@@](C(=O)N[C@@H](Cc4ccsc4)C(=O)N[C@@H](Cc4csc5ccccc45)C(=O)N[C@@H](CCC(N)=O)C(N)=O)(C3)NC(=O)[C@H](CC(N)=O)NC(=O)[C@H](Cc3ccccc3)NC(=O)[C@H](C)NC(=O)C(C)(C)NC(=O)[C@H]([C@@H](C)O)NC(=O)[C@H](CC(N)=O)NC1=O)NC(=O)[C@H](CC(C)(C)C)NC(=O)[C@H](CC(=O)O)NC2=O (stereo partly drawn) [I-2338, Ac-PL3-Asp-Npg-B5-Asn-Thr-Aib-Ala-Phe-Asn-PyrS2-3Thi-BztA-Gln-NH2]
> 20000	5	CC(=O)N1CCC[C@]12CC=CCCCC1(CCCC=CCCCOC(=O)N3CC[C@@](C(=O)N[C@@H](Cc4ccccc4)C(=O)N[C@@H](Cc4csc5ccccc45)C(=O)N[C@@H](CCC(N)=O)C(N)=O)(C3)NC(=O)[C@H](CC(C)C)NC(=O)[C@H](Cc3ccccc3)NC(=O)[C@H](C)NC(=O)[C@H](CCCCNC(C)C)NC(=O)[C@H](Cc3cccc(C(=O)O)c3)NC(=O)[C@H](CC(=O)O)NC1=O)NC(=O)[C@H](CC1CCCCC1)NC(=O)[C@H](CC(N)=O)NC2=O (stereo partly drawn) [I-2340, Ac-PL3-Asn-Cha-B5-Asp-3COOHF-iPrLys-Ala-Phe-Leu-PyrS2-Phe-BztA-Gln-NH2]
> 20000	42	CC(=O)N1CCC[C@]12CC=CCCCC1(CCCC=CCCCOC(=O)N3CC[C@@](C(=O)N[C@@H](Cc4ccccc4)C(=O)N[C@@H](Cc4csc5ccccc45)C(=O)N[C@@H](CCC(N)=O)C(N)=O)(C3)NC(=O)[C@H](CC(C)C)NC(=O)[C@H](Cc3ccccc3)NC(=O)[C@H](C)NC(=O)[C@H](CCCCNC(C)C)NC(=O)[C@H](CN(CC(=O)O)CC(F)(F)F)NC(=O)[C@H](CC(=O)O)NC1=O)NC(=O)[C@H](CC1CCCCC1)NC(=O)[C@H](CC(N)=O)NC2=O (stereo partly drawn) [I-2341, Ac-PL3-Asn-Cha-B5-Asp-TfeGA-iPrLys-Ala-Phe-Leu-PyrS2-Phe-BztA-Gln-NH2]
> 20000	63	CC(=O)N1CCC[C@]12CC=CCCCC1(CCCC=CCCCOC(=O)N3CC[C@@](C(=O)N[C@@H](Cc4ccccc4)C(=O)N[C@@H](Cc4csc5ccccc45)C(=O)N[C@@H](CCCCN)C(N)=O)(C3)NC(=O)[C@H](CC(C)C)NC(=O)[C@H](Cc3ccccc3)NC(=O)[C@H](C)NC(=O)[C@H](CCCCNC(C)C)NC(=O)[C@H](CCC(N)=O)NC(=O)[C@H](CC(=O)O)NC1=O)NC(=O)[C@H](CC1CCCCC1)NC(=O)[C@H](CC(N)=O)NC2=O (stereo partly drawn) [I-2350, Ac-PL3-Asn-Cha-B5-Asp-Gln-iPrLys-Ala-Phe-Leu-PyrS2-Phe-BztA-Lys-NH2]
> 20000	100	CC(=O)N1CCC[C@]12CC=CCCCC1(CCCC=CCCCOC(=O)N3CC[C@@](C(=O)N[C@@H](Cc4ccccc4)C(=O)N[C@@H](Cc4csc5ccccc45)C(=O)N[C@@H](CCC(N)=O)C(N)=O)(C3)NC(=O)[C@H](CC(C)C)NC(=O)[C@H](Cc3ccccc3)NC(=O)[C@H](C)NC(=O)[C@H](CCO)NC(=O)[C@H](CCC(N)=O)NC(=O)[C@H](CC(=O)O)NC1=O)NC(=O)[C@H](CC1CCCCC1)NC(=O)[C@H](CC(N)=O)NC2=O (stereo partly drawn) [I-2354, Ac-PL3-Asn-Cha-B5-Asp-Gln-Hse-Ala-Phe-Leu-PyrS2-Phe-BztA-Gln-NH2]
> 20000	6990	CCOC(=O)C[C@@H]1NC(=O)C2(CCCC=CCCCOC(=O)N3CC[C@@](C(=O)N[C@@H](Cc4ccsc4)C(=O)N[C@@H](Cc4csc5ccccc45)C(=O)N[C@@H](CCC(N)=O)C(N)=O)(C3)NC(=O)[C@H](CC(C)C)NC(=O)[C@H](Cc3ccccc3)NC(=O)[C@H](C)NC(=O)[C@H](C)NC(=O)[C@H](CC(=O)O)NC1=O)CCCC=CC[C@]1(CCCN1C(C)=O)C(=O)N[C@@H](CC(=O)O)C(=O)N[C@@H](CC(C)(C)C)C(=O)N2 (stereo partly drawn) [I-2357, Ac-PL3-Asp-Npg-B5-[Et]AspE-Asp-Ala-Ala-Phe-Leu-PyrS2-3Thi-BztA-Gln-NH2]
> 20000	424	COC(=O)C[C@@H]1NC(=O)[C@]2(CC=CCCCC3(CCCC=CCCCOC(=O)N4CC[C@@](C(=O)N[C@@H](Cc5ccsc5)C(=O)N[C@@H](Cc5csc6ccccc56)C(=O)N[C@@H](CCC(N)=O)C(N)=O)(C4)NC(=O)[C@H](CC(C)C)NC(=O)[C@H](Cc4ccccc4)NC(=O)[C@H](C)NC(=O)[C@H](C)NC(=O)[C@H](CC(=O)O)NC(=O)[C@H](CC(=O)O)NC3=O)NC(=O)[C@H](CC(C)(C)C)NC1=O)CCCN2C(C)=O (stereo partly drawn) [I-2359, Ac-PL3-[Me]AspE-Npg-B5-Asp-Asp-Ala-Ala-Phe-Leu-PyrS2-3Thi-BztA-Gln-NH2]
> 20000	2440	COC(=O)C[C@@H]1NC(=O)C2(CCCC=CCCCOC(=O)N3CC[C@@](C(=O)N[C@@H](Cc4ccsc4)C(=O)N[C@@H](Cc4csc5ccccc45)C(=O)N[C@@H](CCC(N)=O)C(N)=O)(C3)NC(=O)[C@H](CC(C)C)NC(=O)[C@H](Cc3ccccc3)NC(=O)[C@H](C)NC(=O)[C@H](C)NC(=O)[C@H](CC(=O)O)NC1=O)CCCC=CC[C@]1(CCCN1C(C)=O)C(=O)N[C@@H](CC(=O)O)C(=O)N[C@@H](CC(C)(C)C)C(=O)N2 (stereo partly drawn) [I-2360, Ac-PL3-Asp-Npg-B5-[Me]AspE-Asp-Ala-Ala-Phe-Leu-PyrS2-3Thi-BztA-Gln-NH2]
36700	349	COC(=O)C[C@@H]1NC(=O)[C@H](CC(=O)O)NC(=O)C2(CCCC=CCCCOC(=O)N3CC[C@@](C(=O)N[C@@H](Cc4ccsc4)C(=O)N[C@@H](Cc4csc5ccccc45)C(=O)N[C@@H](CCC(N)=O)C(N)=O)(C3)NC(=O)[C@H](CC(C)C)NC(=O)[C@H](Cc3ccccc3)NC(=O)[C@H](C)NC(=O)[C@H](C)NC1=O)CCCC=CC[C@]1(CCCN1C(C)=O)C(=O)N[C@@H](CC(=O)O)C(=O)N[C@@H](CC(C)(C)C)C(=O)N2 (stereo partly drawn) [I-2361, Ac-PL3-Asp-Npg-B5-Asp-[Me]AspE-Ala-Ala-Phe-Leu-PyrS2-3Thi-BztA-Gln-NH2]
6200	7	CC(=O)N1CCC[C@]12CC=CCCCC1(CCCC=CCCCOC(=O)N3CC[C@@](C(=O)N[C@@H](Cc4ccccc4C(F)(F)F)C(=O)N[C@@H](Cc4csc5ccccc45)C(=O)N[C@@H](C)C(N)=O)(C3)NC(=O)[C@H](CC(C)C)NC(=O)[C@H](Cc3ccccc3)NC(=O)[C@H](C)NC(=O)[C@H](CCC(N)=O)NC(=O)[C@H](Cn3cc(CCC(=O)O)nn3)NC(=O)[C@H](CC(=O)O)NC1=O)NC(=O)[C@H](CC(C)(C)C)NC(=O)[C@H](CC(=O)O)NC2=O (stereo partly drawn) [I-2367, Ac-PL3-Asp-Npg-B5-Asp-[CH2CH2CO2H]TriAzDap-Gln-Ala-Phe-Leu-PyrS2-2F3MeF-BztA-Ala-NH2]
5000	5	CC(=O)N1CCC[C@]12CC=CCCCC1(CCCC=CCCCOC(=O)N3CC[C@@](C(=O)N[C@@H](Cc4ccccc4C(F)(F)F)C(=O)N[C@@H](Cc4csc5ccccc45)C(=O)N[C@@H](C)C(N)=O)(C3)NC(=O)[C@H](CC(C)C)NC(=O)[C@H](Cc3ccccc3)NC(=O)[C@H](C)NC(=O)[C@H](CCC(N)=O)NC(=O)[C@H](Cn3cc(CC(C)(C)C(=O)O)nn3)NC(=O)[C@H](CC(=O)O)NC1=O)NC(=O)[C@H](CC(C)(C)C)NC(=O)[C@H](CC(=O)O)NC2=O (stereo partly drawn) [I-2368, Ac-PL3-Asp-Npg-B5-Asp-[CH2CMe2CO2H]TriAzDap-Gln-Ala-Phe-Leu-PyrS2-2F3MeF-BztA-Ala-NH2]
9500	14	CC(=O)N1CCC[C@]12CC=CCCCC1(CCCC=CCCCOC(=O)N3CC[C@@](C(=O)N[C@@H](Cc4ccccc4C(F)(F)F)C(=O)N[C@@H](Cc4csc5ccccc45)C(=O)N[C@@H](C)C(N)=O)(C3)NC(=O)[C@H](CC(C)C)NC(=O)[C@H](Cc3ccccc3)NC(=O)[C@H](C)NC(=O)[C@H](CCC(N)=O)NC(=O)[C@H](Cn3cc(C(C)(C)C(=O)O)nn3)NC(=O)[C@H](CC(=O)O)NC1=O)NC(=O)[C@H](CC(C)(C)C)NC(=O)[C@H](CC(=O)O)NC2=O (stereo partly drawn) [I-2369, Ac-PL3-Asp-Npg-B5-Asp-[CMe2CO2H]TriAzDap-Gln-Ala-Phe-Leu-PyrS2-2F3MeF-BztA-Ala-NH2]
